Data from patent US5212160A, “3-L-(5-thioxo-L-prolyl)thiazolidine-4-carboxylic acid and derivatives therefrom, processes for the preparation thereof and pharmaceutical compositions containing them” (Poli Industria Chimica S.p.A., priority 1990, dated 1993).
Where a SMILES comes first, the peptide text is derived from it. [ ]: non-standard residue; d: D form. pGlu = O=C1CC[C@@H](C(=O)O)N1; Thz = O=C(O)[C@@H]1CSCN1

Legend:
[1] = system: prednisolone-immunodepressed murine peritoneal macrophages; assay: Superoxide anion production by prednisolone-immunodepressed murine peritoneal macrophages (cytochrome C reduction, PMA stimulated); format: in vivo, mice; conditions: for Reduced cytochrome C nmoles/1 × 10^6 macrophages (mean ± s.e.): 200 mg/kg/die i.p. + prednisolone 0.5 mg/kg/die s.c., 11 days, macrophages stimulated with phorbol myristate acetate; for Activity on superoxide anion production compared with PGT: same weight dosage as PGT
Protocol: Since the production of the superoxide anion (O2.) plays an important role in macrophage antimicrobial activity (N. P. Cumming, M. J. Pabst, J. Exp. Med., 152, 1659, 1980), the test for stimulation of the superoxide anion production in macrophages by medicaments is very important in the evaluation of the immuno-stimulating activity. Therefore, O2. production in isolated peritoneal macrophages from prednisolone-immunodepressed animals treated with the compounds of the invention was evaluated. Mice were treated subcutaneously for 11 days with 0.5 mg/kg/day with prednisolone and with the tested compounds at a dose of 100 mg/kg intraperitoneally twice a day, whereas the day of killing they received the only compounds of the invention. Then macrophages were isolated by means of peritoneal washing and cultured in RPMI-1640 added with 10% bovine foetal serum at a concentration of 1×10^6 cells/ml and at a temperature of +37° C. 1 ml aliquots of the cell suspension were incubated for 15 min. at 37° C. with cytochrome C from horse hearth and stimulated with phorbol myristate acetate (H. Nielsen, Eur. J. Clin. Pharmacol., 30, 99, 1986). After that, a spectrophotometric determination of reduced ferricytochrome C at λ=550 nm was carried out, using an extinction coefficient E (550)=29.5 mM.

[2] = Antitoxic activity: protection of rats against acetaldehyde toxicity; format: in vivo, COBS CD(SD) Rats; conditions: 0.5 mM/kg oral (2 administrations); acetaldehyde 2150 mg/kg per os; mortality up to 72 hours
Protocol: (§1) The antitoxic activity was tested by determining the capability of the compounds of the invention to protect rats against formaldehyde and acetaldehyde toxicities (Sprince et al., Agents and Actions, 9, 407, 1979). COBS CD(SD) Rats (C. River) weighing 180-200 g fasted since the night before were orally administered with the test compounds half an hour before and 5 hours after the oral administration of the toxic agent. Formaldehyde was administered at the dose of 900 mg/kg per os and acetaldehyde at the dose of 2150 mg/kg per os; mortality was controlled up to 72 hours later. […] The activity of the compounds of the invention is similar to that of ascorbic acid and L-cysteine. Since acetaldehyde and formaldehyde are an important portion of the toxic agents contained in cigarette smoke, these novel compounds are very important in the treatment of all the lung pathologies connected to tobacco abuse or to atmosphere pollution. The antiradical activity was tested against doxorubicin mortality in the mouse (R. D. Olson et al., Life Sci., 29, 1393, 1981). Groups of 10 male CD-1 mice (C. River) weighing 18-20 g were treated orally with the tested compounds; one hour later doxorubicin was administered at the dose of 22 mg/kg i.p. (10 ml/kg). […]

[3] = Antitoxic activity: protection of rats against formaldehyde toxicity; format: in vivo, COBS CD(SD) Rats; conditions: 0.5 mM/kg oral (2 administrations); formaldehyde 900 mg/kg per os; mortality up to 72 hours
Protocol: as §1

[4] = Antiradical activity: protection against doxorubicin mortality in the mouse; format: in vivo, male CD-1 mice; conditions: 0.5 mM/kg per os 4 times in two days; doxorubicin 22 mg/kg i.p.; mortality checked for 14 days
Protocol: as §1

SMILES: CCOC(=O)[C@@H]1CSCN1C(=O)[C@@H]1CCC(=S)N1 [Ia, Ethyl 3-L-(L-5-thioxoprolyl)thiazolidine-4-carboxylate]
- Reduced cytochrome C nmoles/1 × 10^6 macrophages (mean ± s.e.) [1]: 9.15 ± 0.68 nmoles/1 × 10^6 macrophages
- Activity on superoxide anion production compared with PGT [1]: higher activities than that of PGT
- Protection against acetaldehyde mortality [2]: 70%
- Protection against formaldehyde mortality [3]: 60%
- Protection against doxorubicin mortality [4]: 40%

SMILES: O=C1CC[C@@H](C(=O)N2CSC[C@H]2C(=O)O)N1 [PGT, 3-L-pyroglutamyl-L-thiazolidine-4-carboxylic acid, reference compound] ([pGlu]-[Thz]-OH)
- Reduced cytochrome C nmoles/1 × 10^6 macrophages (mean ± s.e.) [1]: 8.33 ± 0.77 nmoles/1 × 10^6 macrophages

SMILES: O=C(O)[C@@H]1CSCN1C(=O)[C@@H]1CCC(=S)N1 [Ib, 3-L-(5-thioxoprolyl)thiazolidine-4-carboxylic acid]
- Reduced cytochrome C nmoles/1 × 10^6 macrophages (mean ± s.e.) [1]: 9.17 ± 0.68 nmoles/1 × 10^6 macrophages
- Activity on superoxide anion production compared with PGT [1]: higher activities than that of PGT
- Protection against acetaldehyde mortality [2]: 60%
- Protection against formaldehyde mortality [3]: 70%
- Protection against doxorubicin mortality [4]: 50%
